The record followed here is publication PMC9851200, “Multiparameter phenotypic screening for endogenous TFEB and TFE3 translocation identifies novel chemical series modulating lysosome function” (Autophagy, 2022).

Common to all, as to type: binding
The target in test [1] is T1, kinases (KINOMEscan panel) (Homo sapiens, UniProt Q96PY6).
T1 sequence (Q96PY6 1-1258): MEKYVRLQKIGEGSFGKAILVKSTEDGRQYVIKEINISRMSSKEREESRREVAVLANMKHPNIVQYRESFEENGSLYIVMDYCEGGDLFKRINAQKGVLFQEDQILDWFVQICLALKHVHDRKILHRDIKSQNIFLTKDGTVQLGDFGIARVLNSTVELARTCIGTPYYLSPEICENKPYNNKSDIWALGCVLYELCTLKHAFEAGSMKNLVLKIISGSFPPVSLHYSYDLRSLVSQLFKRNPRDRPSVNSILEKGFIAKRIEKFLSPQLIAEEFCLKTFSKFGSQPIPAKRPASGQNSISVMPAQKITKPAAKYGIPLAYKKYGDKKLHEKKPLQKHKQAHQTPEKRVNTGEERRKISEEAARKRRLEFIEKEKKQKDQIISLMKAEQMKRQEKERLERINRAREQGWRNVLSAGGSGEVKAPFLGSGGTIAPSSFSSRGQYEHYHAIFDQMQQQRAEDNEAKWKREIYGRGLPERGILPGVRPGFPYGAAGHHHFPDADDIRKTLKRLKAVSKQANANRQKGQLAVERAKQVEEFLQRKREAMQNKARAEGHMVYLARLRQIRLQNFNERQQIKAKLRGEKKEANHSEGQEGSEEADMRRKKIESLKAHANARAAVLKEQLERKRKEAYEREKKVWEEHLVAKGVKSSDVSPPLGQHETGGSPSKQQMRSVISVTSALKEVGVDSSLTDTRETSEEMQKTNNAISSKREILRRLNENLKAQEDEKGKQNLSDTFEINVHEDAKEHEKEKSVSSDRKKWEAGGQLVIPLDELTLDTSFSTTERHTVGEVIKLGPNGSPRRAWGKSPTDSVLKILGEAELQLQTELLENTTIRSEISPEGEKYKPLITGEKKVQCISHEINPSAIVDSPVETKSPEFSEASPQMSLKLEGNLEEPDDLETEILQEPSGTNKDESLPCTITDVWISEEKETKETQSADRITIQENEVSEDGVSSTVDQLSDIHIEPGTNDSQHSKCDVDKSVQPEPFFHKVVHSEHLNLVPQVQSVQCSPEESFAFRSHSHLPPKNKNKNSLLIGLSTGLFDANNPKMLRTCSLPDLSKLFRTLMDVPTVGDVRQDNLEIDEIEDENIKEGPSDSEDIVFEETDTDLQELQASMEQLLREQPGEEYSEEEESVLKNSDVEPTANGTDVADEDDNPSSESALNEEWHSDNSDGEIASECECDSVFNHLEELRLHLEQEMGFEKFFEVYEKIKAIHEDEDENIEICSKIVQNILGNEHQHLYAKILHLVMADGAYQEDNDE
As to conditions: kinase NEK1; NEW KINOMEscan.

Test [2] has as its target T2, kinases (KINOMEscan panel) (Homo sapiens, UniProt Q56UN5).
T2 sequence (Q56UN5 1-1328): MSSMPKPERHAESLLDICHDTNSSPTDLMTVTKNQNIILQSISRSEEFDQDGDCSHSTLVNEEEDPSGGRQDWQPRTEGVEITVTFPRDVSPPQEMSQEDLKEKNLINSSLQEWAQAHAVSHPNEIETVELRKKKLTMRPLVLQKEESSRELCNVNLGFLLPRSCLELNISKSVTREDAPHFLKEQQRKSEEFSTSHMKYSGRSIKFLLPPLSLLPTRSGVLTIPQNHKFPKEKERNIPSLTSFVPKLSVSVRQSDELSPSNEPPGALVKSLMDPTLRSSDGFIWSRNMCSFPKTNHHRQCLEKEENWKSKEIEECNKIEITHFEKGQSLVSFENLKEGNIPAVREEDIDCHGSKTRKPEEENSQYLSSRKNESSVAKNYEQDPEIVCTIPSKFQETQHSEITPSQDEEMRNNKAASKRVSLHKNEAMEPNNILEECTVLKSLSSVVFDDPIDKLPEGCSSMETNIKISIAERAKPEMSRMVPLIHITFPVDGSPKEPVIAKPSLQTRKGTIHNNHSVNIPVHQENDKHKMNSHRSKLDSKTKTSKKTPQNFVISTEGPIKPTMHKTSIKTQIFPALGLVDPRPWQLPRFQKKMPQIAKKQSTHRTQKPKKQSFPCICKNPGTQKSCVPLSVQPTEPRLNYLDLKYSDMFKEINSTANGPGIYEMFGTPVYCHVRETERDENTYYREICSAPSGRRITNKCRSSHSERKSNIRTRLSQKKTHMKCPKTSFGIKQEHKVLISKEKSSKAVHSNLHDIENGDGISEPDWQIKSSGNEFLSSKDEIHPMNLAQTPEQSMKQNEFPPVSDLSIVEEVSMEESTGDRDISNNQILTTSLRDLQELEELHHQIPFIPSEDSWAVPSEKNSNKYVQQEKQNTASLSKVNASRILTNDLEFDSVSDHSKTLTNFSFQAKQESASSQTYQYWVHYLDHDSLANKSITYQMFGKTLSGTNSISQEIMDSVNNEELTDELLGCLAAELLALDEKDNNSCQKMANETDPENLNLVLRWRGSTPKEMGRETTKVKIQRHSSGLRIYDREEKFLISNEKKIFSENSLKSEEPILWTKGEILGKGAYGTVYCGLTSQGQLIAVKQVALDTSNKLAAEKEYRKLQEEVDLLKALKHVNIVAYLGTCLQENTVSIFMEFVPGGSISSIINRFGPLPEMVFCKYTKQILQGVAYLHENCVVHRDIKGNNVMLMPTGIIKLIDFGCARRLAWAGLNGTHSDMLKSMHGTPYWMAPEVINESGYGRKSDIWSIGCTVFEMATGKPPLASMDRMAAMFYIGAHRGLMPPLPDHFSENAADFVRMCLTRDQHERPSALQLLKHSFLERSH
As to conditions: NEW KINOMEscan.

Test [3] deals with kinases (KINOMEscan panel) (Homo sapiens, UniProt P10721, D816H). As to conditions: NEW KINOMEscan.
Test [4] has as its target kinases (KINOMEscan panel) (Homo sapiens, UniProt P14616). As to conditions: INSRR; NEW KINOMEscan.
Test [5] deals with kinases (KINOMEscan panel) (Homo sapiens, UniProt Q08345). The conditions noted are these: DDR1; NEW KINOMEscan.
The target of test [6] is kinases (KINOMEscan panel) (Homo sapiens, UniProt P19525). As to conditions: kinase ElF2AK2; NEW KINOMEscan.
Sequence of kinases (KINOMEscan panel) (Homo sapiens, UniProt P19525) (P19525 whole entry): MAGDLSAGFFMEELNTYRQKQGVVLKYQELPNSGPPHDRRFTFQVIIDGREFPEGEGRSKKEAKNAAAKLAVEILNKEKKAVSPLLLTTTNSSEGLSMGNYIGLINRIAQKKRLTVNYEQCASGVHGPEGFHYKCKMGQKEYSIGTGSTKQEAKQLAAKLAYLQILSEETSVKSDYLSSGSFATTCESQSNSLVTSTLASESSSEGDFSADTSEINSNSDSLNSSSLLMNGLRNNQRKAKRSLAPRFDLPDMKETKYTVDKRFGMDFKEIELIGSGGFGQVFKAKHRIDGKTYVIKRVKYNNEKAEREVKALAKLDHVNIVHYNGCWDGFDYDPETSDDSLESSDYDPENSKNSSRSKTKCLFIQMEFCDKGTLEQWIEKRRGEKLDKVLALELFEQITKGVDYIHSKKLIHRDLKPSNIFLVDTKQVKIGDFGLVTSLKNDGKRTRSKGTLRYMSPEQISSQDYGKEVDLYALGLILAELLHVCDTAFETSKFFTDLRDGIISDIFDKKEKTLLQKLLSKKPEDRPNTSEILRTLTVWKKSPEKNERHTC

Sequence of kinases (KINOMEscan panel) (Homo sapiens, UniProt P10721, D816H) (P10721 26-976 D816H): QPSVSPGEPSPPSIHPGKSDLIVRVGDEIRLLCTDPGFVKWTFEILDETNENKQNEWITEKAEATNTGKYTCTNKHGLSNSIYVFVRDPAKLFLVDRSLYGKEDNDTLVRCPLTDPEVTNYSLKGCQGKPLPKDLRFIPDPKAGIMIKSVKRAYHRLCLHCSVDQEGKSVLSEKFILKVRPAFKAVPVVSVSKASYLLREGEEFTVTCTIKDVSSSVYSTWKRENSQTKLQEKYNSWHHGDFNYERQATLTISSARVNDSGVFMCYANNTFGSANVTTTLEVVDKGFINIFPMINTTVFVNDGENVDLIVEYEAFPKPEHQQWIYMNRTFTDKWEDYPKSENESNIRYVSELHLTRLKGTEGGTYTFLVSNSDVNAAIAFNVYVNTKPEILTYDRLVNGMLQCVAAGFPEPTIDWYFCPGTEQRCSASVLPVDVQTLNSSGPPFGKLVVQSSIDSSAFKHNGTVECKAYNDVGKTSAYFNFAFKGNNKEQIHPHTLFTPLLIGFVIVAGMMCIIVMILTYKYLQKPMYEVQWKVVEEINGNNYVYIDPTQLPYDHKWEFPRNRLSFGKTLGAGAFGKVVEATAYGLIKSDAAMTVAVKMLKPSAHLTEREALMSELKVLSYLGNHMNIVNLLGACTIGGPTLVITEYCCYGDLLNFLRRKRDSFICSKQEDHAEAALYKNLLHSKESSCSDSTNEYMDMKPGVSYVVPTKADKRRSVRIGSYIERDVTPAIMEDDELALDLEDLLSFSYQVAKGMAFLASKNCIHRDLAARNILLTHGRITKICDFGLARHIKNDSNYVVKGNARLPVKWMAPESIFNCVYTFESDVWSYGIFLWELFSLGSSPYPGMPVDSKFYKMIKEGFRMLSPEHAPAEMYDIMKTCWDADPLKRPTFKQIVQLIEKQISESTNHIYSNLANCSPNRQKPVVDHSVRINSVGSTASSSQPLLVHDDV
Sequence of kinases (KINOMEscan panel) (Homo sapiens, UniProt P14616) (P14616 27-1297): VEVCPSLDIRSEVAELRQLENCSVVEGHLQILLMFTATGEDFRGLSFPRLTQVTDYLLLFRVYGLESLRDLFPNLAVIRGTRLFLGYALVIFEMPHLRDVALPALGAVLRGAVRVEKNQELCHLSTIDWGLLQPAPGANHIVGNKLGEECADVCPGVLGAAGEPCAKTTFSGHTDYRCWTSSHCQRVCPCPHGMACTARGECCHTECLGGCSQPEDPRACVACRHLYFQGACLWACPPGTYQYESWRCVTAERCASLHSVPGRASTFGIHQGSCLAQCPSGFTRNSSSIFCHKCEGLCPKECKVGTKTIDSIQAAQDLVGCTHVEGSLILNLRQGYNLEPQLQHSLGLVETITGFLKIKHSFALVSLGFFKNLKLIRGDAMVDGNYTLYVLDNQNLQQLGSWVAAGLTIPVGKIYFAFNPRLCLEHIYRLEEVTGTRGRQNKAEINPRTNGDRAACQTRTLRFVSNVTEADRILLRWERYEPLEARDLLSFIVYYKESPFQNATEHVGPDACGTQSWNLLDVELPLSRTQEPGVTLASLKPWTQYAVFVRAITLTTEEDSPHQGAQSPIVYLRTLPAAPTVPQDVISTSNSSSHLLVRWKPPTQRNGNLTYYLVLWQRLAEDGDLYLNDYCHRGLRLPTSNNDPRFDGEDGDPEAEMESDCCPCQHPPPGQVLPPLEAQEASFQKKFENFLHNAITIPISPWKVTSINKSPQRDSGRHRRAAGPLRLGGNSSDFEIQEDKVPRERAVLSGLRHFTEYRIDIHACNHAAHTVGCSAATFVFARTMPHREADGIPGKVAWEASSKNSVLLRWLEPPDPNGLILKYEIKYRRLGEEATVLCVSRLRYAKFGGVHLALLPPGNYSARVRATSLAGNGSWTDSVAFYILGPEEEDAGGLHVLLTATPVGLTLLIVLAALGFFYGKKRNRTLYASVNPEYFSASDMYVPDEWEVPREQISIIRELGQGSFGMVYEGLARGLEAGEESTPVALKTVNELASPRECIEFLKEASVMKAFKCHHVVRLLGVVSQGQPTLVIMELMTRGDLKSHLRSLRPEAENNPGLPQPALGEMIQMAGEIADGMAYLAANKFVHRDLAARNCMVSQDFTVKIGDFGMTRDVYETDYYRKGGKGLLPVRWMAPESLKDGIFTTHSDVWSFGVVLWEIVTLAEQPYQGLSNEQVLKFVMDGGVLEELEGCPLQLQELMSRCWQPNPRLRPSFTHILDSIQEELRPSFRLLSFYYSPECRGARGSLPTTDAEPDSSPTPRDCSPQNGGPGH
Sequence of kinases (KINOMEscan panel) (Homo sapiens, UniProt Q08345) (Q08345 19-913): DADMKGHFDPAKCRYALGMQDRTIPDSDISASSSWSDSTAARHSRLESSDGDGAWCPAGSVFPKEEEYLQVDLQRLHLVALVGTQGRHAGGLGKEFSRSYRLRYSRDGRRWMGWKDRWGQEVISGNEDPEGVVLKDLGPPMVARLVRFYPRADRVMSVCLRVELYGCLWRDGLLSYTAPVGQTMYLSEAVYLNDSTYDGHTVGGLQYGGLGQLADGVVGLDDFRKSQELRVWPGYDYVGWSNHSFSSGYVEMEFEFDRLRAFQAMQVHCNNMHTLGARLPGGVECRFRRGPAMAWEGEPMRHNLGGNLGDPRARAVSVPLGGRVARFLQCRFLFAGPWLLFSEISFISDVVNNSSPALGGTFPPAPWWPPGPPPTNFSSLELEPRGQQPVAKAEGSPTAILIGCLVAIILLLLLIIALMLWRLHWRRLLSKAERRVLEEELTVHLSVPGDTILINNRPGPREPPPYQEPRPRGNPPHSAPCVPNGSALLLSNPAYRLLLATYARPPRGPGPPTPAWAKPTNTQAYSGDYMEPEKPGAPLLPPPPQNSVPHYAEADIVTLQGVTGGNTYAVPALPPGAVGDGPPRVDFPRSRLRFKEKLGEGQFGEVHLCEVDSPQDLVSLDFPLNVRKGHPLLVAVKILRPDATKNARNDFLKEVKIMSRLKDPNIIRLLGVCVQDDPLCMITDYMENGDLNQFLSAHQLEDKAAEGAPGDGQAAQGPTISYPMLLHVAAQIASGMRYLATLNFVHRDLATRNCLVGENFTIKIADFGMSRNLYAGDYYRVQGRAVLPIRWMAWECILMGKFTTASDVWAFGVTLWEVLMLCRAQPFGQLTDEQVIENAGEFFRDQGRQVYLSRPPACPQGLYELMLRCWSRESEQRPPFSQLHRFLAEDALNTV

Turning to `Cc1cccc(-c2nc(N(C)c3ccc4ncsc4c3)c3ccccc3n2)n1` [NK-161], the “KINOMEscan NEK1” value in test [1] is 0. Also, in test [2], the “KINOMEscan MAP3K19” value is listed as 0. The “KINOMEscan KIT(D816H)” value in test [3] is recorded as 16. In addition, the “KINOMEscan INSRR” value in test [4] is listed as 0. In addition, the “KINOMEscan DDR1” value in test [5] stood at 0. Moreover, the “KINOMEscan ElF2AK2” value in test [6] is 7.

For the compound `Cc1cccc(-c2nc(Nc3ccc4nn(C)cc4c3)c3ccccc3n2)n1` [NK167], the “KINOMEscan NEK1” value in test [1] came out at 0. In addition, the “KINOMEscan MAP3K19” value in test [2] was 0. The “KINOMEscan KIT(D816H)” value in test [3] worked out at 13. In addition, the “KINOMEscan INSRR” value in test [4] is reported as 0. In test [5], the “KINOMEscan DDR1” value stood at 0. The “KINOMEscan ElF2AK2” value in test [6] is recorded as 19.
